{"source": "paper PMC5218480", "about": "(PLoS ONE, 2017)", "system": "MV-4-11 cells", "assay": "Gene expression microarray analysis (Affymetrix PrimeView) and GSEA", "format": "cell-based, human", "design": "RFU PODN (11730768_x_at) / Fold change /veh PODN (11730768_x_at) / RFU LINC00158 (11744669_a_at) / Fold change /veh LINC00158 (11744669_a_at) / RFU DUSP10 (11751237_a_at) / Fold change /veh DUSP10 (11751237_a_at) / RFU ID3 (11757404_x_at) / Fold change /veh ID3 (11757404_x_at) / RFU PLEKHG5 (11737974_s_at) / Fold change /veh PLEKHG5 (11737974_s_at) / RFU LRRC4B (11730491_at) / Fold change /veh LRRC4B (11730491_at) / RFU GIMAP4 (11747438_a_at) / Fold change /veh GIMAP4 (11747438_a_at) / RFU KRT8 (11758183_x_at) / Fold change /veh KRT8 (11758183_x_at) / RFU CNN1 (11734310_a_at) / Fold change /veh CNN1 (11734310_a_at) / RFU VPS37D (11726825_at) / Fold change /veh VPS37D (11726825_at) / RFU C10orf10 (11716522_x_at) / Fold change /veh C10orf10 (11716522_x_at) / RFU KIR2DL2 /// KIR2DL4 /// KIR2DL5A /// KIR2DL5B /// KIR2DS1 /// KIR2DS2 /// KIR2DS3 /// KIR2DS4 /// KIR3DL3 /// KIR3DL3 /// KIR3DS1 (11738374_at) / Fold change /veh KIR2DL2 /// KIR2DL4 /// KIR2DL5A /// KIR2DL5B /// KIR2DS1 /// KIR2DS2 /// KIR2DS3 /// KIR2DS4 /// KIR3DL3 /// KIR3DL3 /// KIR3DS1 (11738374_at) / RFU C1QL1 (11718748_at) / Fold change /veh C1QL1 (11718748_at) / RFU TMPRSS4 (11747572_a_at) / Fold change /veh TMPRSS4 (11747572_a_at) / RFU HAMP (11756126_x_at) / Fold change /veh HAMP (11756126_x_at) / RFU RNFT2 (11725882_a_at) / Fold change /veh RNFT2 (11725882_a_at) / RFU NR4A2 (11747474_a_at) / Fold change /veh NR4A2 (11747474_a_at) / RFU ABCC12 (11746883_a_at) / Fold change /veh ABCC12 (11746883_a_at) / RFU TMEM136 (11760407_x_at) / Fold change /veh TMEM136 (11760407_x_at) / RFU CLDN22 /// WWC2 (11732394_at) / Fold change /veh CLDN22 /// WWC2 (11732394_at) / RFU HLA-DPB1 (11760878_x_at) / Fold change /veh HLA-DPB1 (11760878_x_at) / RFU SPINT1 (11716480_a_at) / Fold change /veh SPINT1 (11716480_a_at) / RFU GAP43 (11754022_s_at) / Fold change /veh GAP43 (11754022_s_at) / RFU A4GNT (11735810_at) / Fold change /veh A4GNT (11735810_at) / RFU PRB3 (11715151_x_at) / Fold change /veh PRB3 (11715151_x_at) / RFU TUBB4B (11761932_at) / Fold change /veh TUBB4B (11761932_at) / RFU CAPN14 (11732068_a_at) / Fold change /veh CAPN14 (11732068_a_at) / RFU TMCC2 (11721928_a_at) / Fold change /veh TMCC2 (11721928_a_at) / RFU IRGQ (11745062_a_at) / Fold change /veh IRGQ (11745062_a_at) / RFU FAM174B (11720279_a_at) / Fold change /veh FAM174B (11720279_a_at) / RFU TMPRSS4 (11748680_a_at) / Fold change /veh TMPRSS4 (11748680_a_at) / RFU FAM212B (11763350_a_at) / Fold change /veh FAM212B (11763350_a_at) / RFU PLEKHG5 (11743358_a_at) / Fold change /veh PLEKHG5 (11743358_a_at) / RFU ZSCAN30 (11745921_a_at) / Fold change /veh ZSCAN30 (11745921_a_at) / RFU CMKLR1 (11741424_a_at) / Fold change /veh CMKLR1 (11741424_a_at) / RFU LOC101060620 /// MAPK8IP1 (11723275_at) / Fold change /veh LOC101060620 /// MAPK8IP1 (11723275_at) / RFU SPTSSB (11747773_x_at) / Fold change /veh SPTSSB (11747773_x_at) / RFU PRSS12 (11739890_at) / Fold change /veh PRSS12 (11739890_at) / RFU BIN1 (11741810_x_at) / Fold change /veh BIN1 (11741810_x_at) / RFU WNT11 (11732464_a_at) / Fold change /veh WNT11 (11732464_a_at) / RFU C10orf10 (11716521_a_at) / Fold change /veh C10orf10 (11716521_a_at) / RFU C5orf56 (11738089_at) / Fold change /veh C5orf56 (11738089_at) / RFU CYB561 (11721691_x_at) / Fold change /veh CYB561 (11721691_x_at) / RFU ANKRD19P (11752326_a_at) / Fold change /veh ANKRD19P (11752326_a_at) / RFU OR2T12 /// OR2T33 /// OR2T8 (11738714_s_at) / Fold change /veh OR2T12 /// OR2T33 /// OR2T8 (11738714_s_at) / RFU VCAN (11748164_a_at) / Fold change /veh VCAN (11748164_a_at) / RFU JSRP1 (11732532_at) / Fold change /veh JSRP1 (11732532_at) / RFU KRTAP10-11 (11738290_x_at) / Fold change /veh KRTAP10-11 (11738290_x_at) / RFU MYO3A (11730013_a_at) / Fold change /veh MYO3A (11730013_a_at) / RFU EBF3 (11725865_a_at) / Fold change /veh EBF3 (11725865_a_at) / RFU CAMK2N1 (11719241_x_at) / Fold change /veh CAMK2N1 (11719241_x_at) / RFU C5orf56 (11738088_a_at) / Fold change /veh C5orf56 (11738088_a_at) / RFU OLFML3 (11715873_a_at) / Fold change /veh OLFML3 (11715873_a_at) / RFU LOC100653217 /// NTM (11731650_a_at) / Fold change /veh LOC100653217 /// NTM (11731650_a_at) / RFU MAPK11 (11762145_a_at) / Fold change /veh MAPK11 (11762145_a_at) / RFU FIZ1 (11724087_x_at) / Fold change /veh FIZ1 (11724087_x_at) / RFU OASL (11726364_x_at) / Fold change /veh OASL (11726364_x_at) / RFU SOX15 (11748057_x_at) / Fold change /veh SOX15 (11748057_x_at) / RFU CD79A (11719716_a_at) / Fold change /veh CD79A (11719716_a_at) / RFU HIST1H1D (11736915_at) / Fold change /veh HIST1H1D (11736915_at) / RFU CASKIN2 (11723855_a_at) / Fold change /veh CASKIN2 (11723855_a_at) / RFU LOC730098 (11760151_x_at) / Fold change /veh LOC730098 (11760151_x_at) / RFU OR4N2 (11742367_at) / Fold change /veh OR4N2 (11742367_at) / RFU PRRT2 (11749266_a_at) / Fold change /veh PRRT2 (11749266_a_at) / RFU SNX32 (11753110_a_at) / Fold change /veh SNX32 (11753110_a_at) / RFU CDHR5 (11726645_a_at) / Fold change /veh CDHR5 (11726645_a_at) / RFU RCAN1 (11760418_a_at) / Fold change /veh RCAN1 (11760418_a_at) / RFU FAM167A (11723789_a_at) / Fold change /veh FAM167A (11723789_a_at) / RFU FAM26E (11764081_at) / Fold change /veh FAM26E (11764081_at) / RFU ISYNA1 (11749810_s_at) / Fold change /veh ISYNA1 (11749810_s_at) / RFU ACY1 (11761880_at) / Fold change /veh ACY1 (11761880_at) / RFU 11764098_at / Fold change /veh 11764098_at / RFU SAMD14 (11745864_x_at) / Fold change /veh SAMD14 (11745864_x_at) / RFU NPB (11741838_a_at) / Fold change /veh NPB (11741838_a_at) / RFU TMPRSS6 (11731388_a_at) / Fold change /veh TMPRSS6 (11731388_a_at) / RFU KRTAP10-2 (11738614_at) / Fold change /veh KRTAP10-2 (11738614_at) / RFU ARHGAP8 /// PRR5-ARHGAP8 (11727945_x_at) / Fold change /veh ARHGAP8 /// PRR5-ARHGAP8 (11727945_x_at) / RFU KRTAP5-7 /// NADSYN1 (11734609_at) / Fold change /veh KRTAP5-7 /// NADSYN1 (11734609_at) / RFU RASL12 (11751679_a_at) / Fold change /veh RASL12 (11751679_a_at) / RFU CDKN2B (11736163_a_at) / Fold change /veh CDKN2B (11736163_a_at) / RFU PRF1 (11729649_at) / Fold change /veh PRF1 (11729649_at) / RFU, ZNF638 /// ZNF638-IT1 / Fold change vs veh, ZNF638 /// ZNF638-IT1 / RFU, PANK3 / Fold change vs veh, PANK3 / RFU, SH3YL1 / Fold change vs veh, SH3YL1 / RFU, ZEB2 / Fold change vs veh, ZEB2 / RFU, NRIP1 / Fold change vs veh, NRIP1 / RFU, PTTG1IP / Fold change vs veh, PTTG1IP / RFU, CAPN2 / Fold change vs veh, CAPN2 / RFU, MED14 / Fold change vs veh, MED14 / RFU, SNORA58 / Fold change vs veh, SNORA58 / RFU, C1orf63 / Fold change vs veh, C1orf63 / RFU, LRRFIP1 / Fold change vs veh, LRRFIP1 / RFU, NDUFAF7 / Fold change vs veh, NDUFAF7 / RFU, SLC12A2 / Fold change vs veh, SLC12A2 / RFU, IBTK / Fold change vs veh, IBTK / RFU, ESF1 / Fold change vs veh, ESF1 / Fold change vs veh, TMEM50B / RFU, TAOK1 / Fold change vs veh, TAOK1 / RFU, ACBD3 / Fold change vs veh, ACBD3 / RFU, TMA16 / Fold change vs veh, TMA16 / RFU, RWDD3 / Fold change vs veh, RWDD3 / RFU, BCAT1 / Fold change vs veh, BCAT1 / RFU, EDEM3 / Fold change vs veh, EDEM3 / RFU, TMEM33 / Fold change vs veh, TMEM33 / RFU, WDR75 / Fold change vs veh, WDR75 / RFU, AHCTF1 / Fold change vs veh, AHCTF1 / RFU, TFRC / Fold change vs veh, TFRC / RFU, ZDHHC17 / Fold change vs veh, ZDHHC17 / RFU, NOM1 / Fold change vs veh, NOM1 / RFU, ARL8B / Fold change vs veh, ARL8B / RFU, ZBTB11 / Fold change vs veh, ZBTB11 / RFU, TAMM41 / Fold change vs veh, TAMM41 / RFU, KIAA1704 /// LOC100996395 / Fold change vs veh, KIAA1704 /// LOC100996395 / RFU, ING1 / Fold change vs veh, ING1 / RFU, TRMT61B / Fold change vs veh, TRMT61B / RFU, FUBP3 / Fold change vs veh, FUBP3 / RFU, TP53 / Fold change vs veh, TP53 / RFU, TNKS2 / Fold change vs veh, TNKS2 / RFU, ZFP14 / Fold change vs veh, ZFP14 / RFU, ACTR2 / Fold change vs veh, ACTR2 / RFU, PPP3R1 / Fold change vs veh, PPP3R1 / RFU, PIK3R1 / Fold change vs veh, PIK3R1 / RFU, HNRNPA1 / Fold change vs veh, HNRNPA1 / RFU, RNF170 / Fold change vs veh, RNF170 / RFU, ZNF28 / Fold change vs veh, ZNF28 / RFU, RNGTT / Fold change vs veh, RNGTT / RFU, OGT / Fold change vs veh, OGT / RFU, BRD1 / Fold change vs veh, BRD1 / RFU, MARS / Fold change vs veh, MARS / RFU, ZNF655 / Fold change vs veh, ZNF655 / RFU, FAHD1 / Fold change vs veh, FAHD1 / RFU, BDP1 / Fold change vs veh, BDP1 / RFU, LRRCC1 / Fold change vs veh, LRRCC1 / RFU, ARID1A / Fold change vs veh, ARID1A / RFU, ZNF146 / Fold change vs veh, ZNF146 / RFU, ZNF330 / Fold change vs veh, ZNF330 / RFU, GPN3 / Fold change vs veh, GPN3 / RFU, C9orf123 / Fold change vs veh, C9orf123 / RFU, N4BP2L2 / Fold change vs veh, N4BP2L2 / RFU, ARFIP1 / Fold change vs veh, ARFIP1 / RFU, FAM179B / Fold change vs veh, FAM179B / RFU, BCL10 / Fold change vs veh, BCL10 / RFU, UHRF1BP1L / Fold change vs veh, UHRF1BP1L / RFU, BET1 / Fold change vs veh, BET1 / RFU, CNOT2 / Fold change vs veh, CNOT2 / RFU, ZNF268 / Fold change vs veh, ZNF268 / Fold change vs veh, ZNF507 / RFU, DGCR2 / Fold change vs veh, DGCR2 / RFU, WDSUB1 / Fold change vs veh, WDSUB1 / Fold change vs veh, HSP90B1 /// MIR3652 / RFU, ADSS / Fold change vs veh, ADSS / RFU, GK / Fold change vs veh, GK / RFU, ZNF148 / Fold change vs veh, ZNF148 / RFU, TAF9 / Fold change vs veh, TAF9 / RFU, SLC1A5 / Fold change vs veh, SLC1A5 / RFU, SLMO2 / Fold change vs veh, SLMO2 / RFU, ABCC4 / Fold change vs veh, ABCC4 / RFU, LOC101060439 /// RAP1B / Fold change vs veh, LOC101060439 /// RAP1B / RFU, RFX7 / Fold change vs veh, RFX7 / RFU, GTPBP10 / Fold change vs veh, GTPBP10 / RFU, CNEP1R1 / Fold change vs veh, CNEP1R1 / RFU, BIVM-ERCC5 /// ERCC5 / Fold change vs veh, BIVM-ERCC5 /// ERCC5 / RFU, ILF3 / Fold change vs veh, ILF3 / RFU 11762660_at / Fold change /veh 11762660_at / RFU VCAN (11757783_s_at) / Fold change /veh VCAN (11757783_s_at) / RFU DDX43 (11728927_at) / Fold change /veh DDX43 (11728927_at) / RFU KRT8 (11758188_x_at) / Fold change /veh KRT8 (11758188_x_at) / RFU NKD1 (11759106_at) / Fold change /veh NKD1 (11759106_at) / RFU SRD5A1 (11742802_a_at) / Fold change /veh SRD5A1 (11742802_a_at) / RFU TPSAB1 /// TPSB2 (11721975_s_at) / Fold change /veh TPSAB1 /// TPSB2 (11721975_s_at) / RFU GSTM3 (11746129_a_at) / Fold change /veh GSTM3 (11746129_a_at) / RFU IL23R (11737362_x_at) / Fold change /veh IL23R (11737362_x_at) / RFU TMEM51 (11727254_a_at) / Fold change /veh TMEM51 (11727254_a_at) / RFU PIWIL2 (11732686_x_at) / Fold change /veh PIWIL2 (11732686_x_at) / RFU ORM1 (11744905_x_at) / Fold change /veh ORM1 (11744905_x_at) / RFU CCDC152 (11743942_at) / Fold change /veh CCDC152 (11743942_at) / RFU ECM1 (11717891_a_at) / Fold change /veh ECM1 (11717891_a_at) / RFU IL23R (11748794_a_at) / Fold change /veh IL23R (11748794_a_at) / RFU TNFAIP8L3 (11732012_x_at) / Fold change /veh TNFAIP8L3 (11732012_x_at) / RFU MBOAT4 (11741988_at) / Fold change /veh MBOAT4 (11741988_at) / RFU 11764193_at / Fold change /veh 11764193_at / RFU TMEM53 (11763286_at) / Fold change /veh TMEM53 (11763286_at) / RFU MAGEB2 (11727129_at) / Fold change /veh MAGEB2 (11727129_at) / RFU TMEM200A (11744735_a_at) / Fold change /veh TMEM200A (11744735_a_at) / RFU CCDC152 (11751479_a_at) / Fold change /veh CCDC152 (11751479_a_at) / RFU FAM211A (11726209_a_at) / Fold change /veh FAM211A (11726209_a_at) / RFU RGS16 (11746705_a_at) / Fold change /veh RGS16 (11746705_a_at) / RFU VCAN (11755009_s_at) / Fold change /veh VCAN (11755009_s_at) / RFU RHOB (11743442_s_at) / Fold change /veh RHOB (11743442_s_at) / RFU RGS16 (11720943_a_at) / Fold change /veh RGS16 (11720943_a_at) / RFU RGS16 (11720944_at) / Fold change /veh RGS16 (11720944_at) / RFU, VPS4B / Fold change vs veh, VPS4B / RFU, CREB1 / Fold change vs veh, CREB1 / RFU, DNAJC13 / Fold change vs veh, DNAJC13 / RFU, GNAQ / Fold change vs veh, GNAQ / RFU, CDK5R1 / Fold change vs veh, CDK5R1 / RFU, ZRANB3 / Fold change vs veh, ZRANB3 / RFU, CUL4A / Fold change vs veh, CUL4A / RFU, CCNY / Fold change vs veh, CCNY / RFU, UFL1 / Fold change vs veh, UFL1 / RFU, COG3 / Fold change vs veh, COG3 / RFU, DIAPH2 / Fold change vs veh, DIAPH2 / RFU, SKA2 / Fold change vs veh, SKA2 / RFU, AFF3 / Fold change vs veh, AFF3 / RFU, LMF1 / Fold change vs veh, LMF1 / RFU, IPO11 / Fold change vs veh, IPO11 / RFU, DFFB / Fold change vs veh, DFFB / RFU, FOXP1 / Fold change vs veh, FOXP1 / RFU, CARD8 / Fold change vs veh, CARD8 / RFU, STRN3 / Fold change vs veh, STRN3 / RFU, ADK / Fold change vs veh, ADK / RFU, RASSF2 / Fold change vs veh, RASSF2 / RFU, WIPF1 / Fold change vs veh, WIPF1 / RFU, LARP1B / Fold change vs veh, LARP1B / RFU, RASA1 / Fold change vs veh, RASA1 / RFU, RB1 / Fold change vs veh, RB1 / RFU, PPFIA1 / Fold change vs veh, PPFIA1 / RFU, MAT2A / Fold change vs veh, MAT2A / RFU, CCT5 / Fold change vs veh, CCT5 / RFU, WDR92 / Fold change vs veh, WDR92 / RFU, CUX1 / Fold change vs veh, CUX1 / RFU, TTC7A / Fold change vs veh, TTC7A / RFU, TMEM135 / Fold change vs veh, TMEM135 / RFU, DEPTOR / Fold change vs veh, DEPTOR / RFU, CPM / Fold change vs veh, CPM / RFU, DNAJB6 / Fold change vs veh, DNAJB6 / RFU, CACNA2D3 / Fold change vs veh, CACNA2D3 / RFU, DTX4 / Fold change vs veh, DTX4 / RFU, TFCP2 / Fold change vs veh, TFCP2 / RFU, GMCL1 /// GMCL1P1 / Fold change vs veh, GMCL1 /// GMCL1P1 / RFU, AEBP2 / Fold change vs veh, AEBP2 / RFU, SNHG1 /// SNORD22 /// SNORD25 /// SNORD26 /// SNORD27 /// SNORD28 /// SNORD29 /// SNORD31 / Fold change vs veh, SNHG1 /// SNORD22 /// SNORD25 /// SNORD26 /// SNORD27 /// SNORD28 /// SNORD29 /// SNORD31 / Fold change (Aza/veh), C12orf56 (ProbeSet 11735607_a_at) / Fold change (ACY-1035/veh), C12orf56 (ProbeSet 11735607_a_at) / Fold change (Aza/veh), FGFR1OP (ProbeSet 11751329_s_at) / Fold change (ACY-1035/veh), FGFR1OP (ProbeSet 11751329_s_at) / Fold change (Aza/veh), VPS36 (ProbeSet 11739960_a_at) / Fold change (ACY-1035/veh), VPS36 (ProbeSet 11739960_a_at) / RFU SYPL1 (11715823_x_at) / Fold change /veh SYPL1 (11715823_x_at) / RFU IGFBP7 (11715501_s_at) / Fold change /veh IGFBP7 (11715501_s_at) / RFU REEP3 (11722064_at) / Fold change /veh REEP3 (11722064_at) / RFU IGLL1 (11728026_x_at) / Fold change /veh IGLL1 (11728026_x_at): dose or concentration left out as unconfirmed", "details": "ProbeSet 11727827_x_at; LIST B"}
{"smiles": "Nc1ncn([C@@H]2O[C@H](CO)[C@@H](O)[C@H]2O)c(=O)n1", "note": "[azacitidine]", "values": [{"measurement": "RFU, NDUFAF7", "result": 58.08, "unit": "RFU"}]}
